The results in this text go back to US9587001B2, “Conjugated knottin mini-proteins containing non-natural amino acids” (priority 2012, dated 2017).

Starred links: 1 amine or outer side, 2 acyl side, 3 side chain; linkers in the order of their positions; H or OH if unused. Positions of bridges follow the written chain, without caps; N, C: chain ends. Non-standard residues stand in square brackets, D forms with d. Residues, ends and D or L forms follow the SMILES beside them. Primed or numbered codes have the meaning given here. Chains are numbered I, II in the order given. No end group written: not given here. AO″ = AO: aminooxy residue, 2-amino-3-(2-(aminooxy)acetamido)propanoic acid (side chain carries R'-O-NH2), O=C(CON[*:3])NC[C@H](N[*:1])C(=O)[*:2]; X1 = O=C(NCCCOCCCCOCCCNC(=O)c1ccc(C=NOCC(=O)[*:2])cc1)c1ccc(C=NOCC(=O)[*:1])cc1; Dap = NC[C@H](N)C(=O)O

For assay [1], the system named is U87MG cells expressing αvβ3, αvβ5, and α5β1 integrins. The assay can be described thus: Competition binding assay to U87MG cells (flow cytometry). Set-up: species or system human. As to conditions: for IC50: 4° C. for 10 h, average of three experiments; for increase of apparent binding affinity of dimer compared to the monomer: from IC50 values. Here is the method: FIG. 2B is a graph showing a competition assay of EETI-based integrin binding proteins 2.5F dimer and 2.5F monomer to U87MG cells, as measured by flow cytometry. Alexa488-labeled EETI 2.5F was used as a competitor. Monomeric EETI 2.5F with an introduced aminooxy residue is designated as 2.5F_AO.
FIG. 2C is a graph showing a competition assay of AgRP-based integrin binding proteins: dimeric 7C and monomeric 7C to U87MG cells, as measured by flow cytometry. Alexa488-labeled AgRP 7C was used as a competitor. Monomeric AgRP 7C with aminooxy residue is designated as Monomeric 7C_AO.
Alexa488-labeled EETI 2.5F was used as a competitor.
Competition binding assays were performed to measure the relative binding affinities of engineered knottins to U87MG cells expressing αvβ3, αvβ5, and α5β1 integrins (FIG. 2A, 2B, 2C). 2×10^5 U87MG cells were incubated at 4° C. for 10 h in integrin binding buffer (20 mM Tris pH 7.5, 1 mM MgCl2, 1 mM MnCl2, 2 mM CaCl2, 100 mM NaCl, and 0.1% BSA) and varying concentrations of the peptides with 0.25 nM of Alexa488-labeled EETI 2.5F as a competitor for dimeric and monomeric EETI 2.5F, and 5 nM of Alexa488-labeled AgRP 7C as a competitor for dimeric and monomeric AgRP 7C. Half-maximal inhibitory concentration (IC50) values were determined by nonlinear regression analysis using KaleidaGraph (Synergy Software), and are presented as the average of three separate experiments.
(Flow cytometry measures light scatter and fluorescence of single cells or particles in a stream.)

Assay [2] has as its system U87MG cells. Format: cell-based, human. The following applies: for EC50: U87MG cells on fibronectin coated plates, 1 h at 37° C., read-out: Adhesion EC50. Here is the method: FIG. 3A is a graph measuring comparative inhibition of adhesion of U87MG cells treated with dimeric and monomeric 2.5F to fibronectin, a component of ECM. Fibronectin coated plates were incubated with U87MG cells with the indicated concentrations of peptides. Adherent cells remaining after several wash steps were quantified with crystal violet staining by absorbance at 600 nm. […] Values were normalized to negative control containing no competing peptides.
FIG. 7 is a graph measuring comparative inhibition of adhesion of U87MG cells treated with dimeric and monomeric 2.5F or Cilgenitide to fibronectin, a component of ECM. Fibronectin coated plates were incubated with U87MG cells with the indicated concentrations of peptides. Adherent cells remaining after several wash steps were quantified with crystal violet staining by absorbance at 600 nm. Values were normalized to negative control containing no competing peptides.
Varying concentrations of peptides were added to 4×10^4 cells in 100 μl of IBB, incubated for 1 h at 37° C., 5% CO2, and gently washed with Dulbecco's PBS (DPBS, Invitrogen). Remaining adherent cells were incubated with 100 μl of 0.2% crystal violet and 10% ethanol for 10 min at room temperature, washed in DPBS and solubilized with 100 μl/well of a 50:50 mixture of 100 mM sodium phosphate, pH 4.5 and ethanol for 10 min. The absorbance at 600 nm was measured using Synergy HT microplate reader (BioTek).

Assay [3] deals with U87MG cells. The assay can be described thus: U87MG cell morphology after knottin treatment (microscope images). The assay is classed as cell-based, human. The following applies: 500 nM, 24 h, DMEM media with 4% FBS. Here is the method:
FIG. 3B is a panel of microscope images of the U87MG cells on culture plates after 24 h treatment with 500 nM of the indicated knottins.

Assay [4] relates to U87MG cells. The assay can be described thus: Cytotoxicity / inhibition of proliferation of U87MG cells (AlamarBlue). The assay is classed as cell-based, human. Here is the method: FIG. 4A is a bar graph showing time dependent cytotoxicity of U87MG cells after treatment with the indicated knottin mini-proteins. Cytotoxicity was monitored by incubating U87MG cells on culture plates with 500 nM of each knottin in 4% FBS media at 37° C. and 5% CO2 and measuring cell viability at 24, 48, and 72 h after the treatment using the AlamarBlue indicator dye.
FIG. 4B is a bar graph showing dose dependent cytotoxicity of U87MG cells assessed by treating with different concentrations of knottins for 72 h and measuring cell viability using the AlamarBlue indicator dye.
FIG. 8 is a bar graph showing dose dependent cytotoxicity of U87MG cells assessed by treating with different concentrations of dimeric or monomeric 2.5F or Cilgenitide for 72 h and measuring cell viability using the AlamarBlue indicator dye.
(Resazurin is reduced to fluorescent resorufin, in cell work by metabolically active cells.)

The test system of assay [5] is MDA231 (Human breast adenocarcinoma). Kind of assay: Inhibition of proliferation, MDA231 carcinoma line. Format: cell-based. As to conditions: for Proliferation: Cell line: MDA231; for inhibition of tumor cell proliferation, comparison between dimers, monomer and Cilengitide: Table 3 results. Here is the method: (§1) Dimers of the present knottins with AO groups incorporated at different positions were prepared and conjugated with different linkages. There were tested for activity against carcinoma lines. As identified there, Dimer 1 is EETI 2.5F where the AO group was incorporated in place of Lys15, conjugated through the 17.3 Angstrom linker shown in FIG. 1B; Dimer 2 is EETI 2.5F, where the AO group was incorporated in place of Lys15, conjugated though the 68.5 Angstrom linker shown in FIG. 9. Dimer 3 is EETI 2.5F, where the AO group was incorporated at the C-terminus following residue 33, conjugated through a 17.3 Angstrom linker shown in FIG. 1B; Dimer 4 is EETI 2.5F, where the AO group was incorporated at the C-terminus following residue 33, conjugated through the 68.5 Angstrom linker shown in FIG. 9. […] Also, it was observed that the length of the linkage had only a minor effect on binding. Binding, of course, it correlated with the activity in proliferation and apoptosis.

For assay [6] the test system is unchanged. The assay can be described thus: Apoptosis (Caspase-3), MDA231 carcinoma line. Format: cell-based. As to conditions: Cell line: MDA231. Here is the method: as §1
Assay [7] deals with SKOV 3 (Ovarian adenocarcinoma). Kind of assay: Inhibition of proliferation, SKOV 3 carcinoma line. The assay is classed as cell-based. As to conditions: Cell line: SKOV 3. Here is the method:
as §1

Setting [8] is: 0.25 nM Alexa488-labeled EETI 2.5F as competitor.

In the case of “I: GCPRPRGDNPPLTC[Dap]QDSDCLAGCVCGPNGFCG / II: GCPRPRGDNPPLTC[Dap]QDSDCLAGCVCGPNGFCG (disulfide I:2-I:24, I:14-I:26, I:20-I:32, II:2-II:24, II:14-II:26, II:20-II:32; linker I:15-II:15 via X1) [EETI 2.5F Dimer]”, the IC50 (commonly the concentration that gives 50% inhibition) in assay [1] (setting [8]) was found to be 0.036 ± 0.002 nM. The “increase of apparent binding affinity of dimer compared to the monomer” value in assay [1] is “approximately 46 fold”. In addition, the EC50 (usually the midpoint of the concentration-response curve) in the assay on U87MG cells [2] was found to be 8 ± 2 nM. Also, the “inhibition of U87MG cell adhesion to fibronectin (in words)” value (shortened to “inhibition of U87MG cell adhesion”) with U87MG cells [2] (fibronectin-coated plates) is recorded as “able to inhibit”. The “more effective in preventing U87MG cell adhesion compared to the monomer” value in the assay with U87MG cells [2] (fibronectin-coated plates) turned out to be 100 fold. The U87MG cell morphology result with U87MG cells [3] was “rounded morphology”. In addition, the “inhibition of U87MG cell proliferation” value in the assay with U87MG cells [4] (10 nM, 72 hours) was 28%; in the assay on U87MG cells [4] (100 nM, 72 hours), 52%; with U87MG cells [4] (500 nM, 24 h) it was 53%; with U87MG cells [4] (500 nM, 48 h) it was 68%; in the assay with U87MG cells [4] (500 nM, 72 h), 69%; with U87MG cells [4] (1000 nM, 72 hours), 70%. Further, in the assay with U87MG cells [4] (U87MG cells, 72 h), the “more potent at inhibiting cell proliferation compared to Cilengitide” value is 100 fold. For the same compound, the Proliferation result in assay [5] and in assay [7] was “Strong inhibition” throughout. Besides, the “inhibition of tumor cell proliferation, comparison between dimers, monomer and Cilengitide” value in assay [5] is “more strongly inhibited tumor cell proliferation compared to Dimers 3 and 4”. The “Apoptosis (Caspase-3)” value in assay [6] is “Strong induction”.

On to `CC(C)C[C@@H]1NC(=O)[C@@H]2CSSC[C@@H](C(=O)NCC(=O)O)NC(=O)[C@H](Cc3ccccc3)NC(=O)CNC(=O)[C@H](CC(N)=O)NC(=O)[C@@H]3CCCN3C(=O)CNC(=O)[C@@H]3CSSC[C@H](NC(=O)[C@H]([C@@H](C)O)NC(=O)[C@H](CC(C)C)NC(=O)[C@@H]4CCCN4C(=O)[C@@H]4CCCN4C(=O)[C@H](CC(N)=O)NC(=O)[C@H](CC(=O)O)NC(=O)CNC(=O)[C@H](CCCNC(=N)N)NC(=O)[C@@H]4CCCN4C(=O)[C@H](CCCNC(=N)N)NC(=O)[C@@H]4CCCN4C(=O)[C@@H](NC(=O)CN)CSSC[C@H](NC(=O)CNC(=O)[C@H](C)NC1=O)C(=O)N[C@@H](C(C)C)C(=O)N3)C(=O)N[C@@H](CCCCN)C(=O)N[C@@H](CCC(N)=O)C(=O)N[C@@H](CC(=O)O)C(=O)N[C@@H](CO)C(=O)N[C@@H](CC(=O)O)C(=O)N2` [EETI 2.5F] (H-GCPRPRGDNPPLTCKQDSDCLAGCVCGPNGFCG-OH; disulfide 2-24, 14-26, 20-32), for which the IC50 in assay [1] (setting [8]) was determined as 1.64 ± 0.03 nM. Also, the EC50 in the assay with U87MG cells [2] is 180 ± 14 nM. For the same compound, the “inhibition of U87MG cell adhesion” value with U87MG cells [2] (fibronectin-coated plates) is given as “able to inhibit”. The U87MG cell morphology entry in the assay with U87MG cells [3] was “rounded morphology”. For the same compound, the “inhibition of U87MG cell proliferation” value is given as 15% in the assay on U87MG cells [4] (10 nM, 72 hours); 30% in the assay with U87MG cells [4] (100 nM, 72 hours); 37% in the assay on U87MG cells [4] (500 nM, 24 h); 44% with U87MG cells [4] (500 nM, 48 h); 50% in the assay with U87MG cells [4] (500 nM, 72 h); 60% with U87MG cells [4] (1000 nM, 72 hours). The Proliferation result in assay [5] is listed as “Weak inhibition”. The “Apoptosis (Caspase-3)” value in assay [6] is reported as “Moderate induction”.

As to “2.5F Dimer2: EETI 2.5F, AO in place of Lys15, conjugated though the 68.5 Angstrom linker shown in FIG. 9 (GCPRPRGDNPPLTC[AO″]QDSDCLAGCVCGPNGFCG; ends and bridges not checked; also: dimer (Dimer2) conjugated through 68.5 Angstrom linker via AO15)”, in assay [5], the Proliferation entry is recorded as “Strong inhibition”; the “inhibition of tumor cell proliferation, comparison between dimers, monomer and Cilengitide” value was “more strongly inhibited tumor cell proliferation compared to Dimers 3 and 4”. In assay [7], the Proliferation entry is “Strong inhibition”.

In the case of “I: GCVRLHESCLGQQVPCCDPAATCYCYGRGDNDLRCYC[Dap] / II: GCVRLHESCLGQQVPCCDPAATCYCYGRGDNDLRCYC[Dap] (disulfide I:2-I:17, I:9-I:23, I:16-I:37, I:25-I:35, II:2-II:17, II:9-II:23, II:16-II:37, II:25-II:35; linker I:38-II:38 via X1) [AgRP 7C Dimer]”, in assay [1] (5 nM Alexa488-labeled AgRP 7C as competitor), the IC50 turned out to be 3.2 ± 0.6 nM. Also, the “increase of apparent binding affinity of dimer compared to the monomer” value in assay [1] is around 4 fold.

For `CC(C)[C@H]1C(=O)N[C@@H](CCCN=C(N)N)C(=O)NCC(=O)N[C@@H](CC(=O)O)C(=O)N[C@H](Cc2ccccc2)C(=O)N1C` [Cilengitide, reference compound], the “inhibition of U87MG cell adhesion” value in the assay on U87MG cells [2] (fibronectin-coated plates) was “does not inhibit”. The Proliferation result in assay [5] is “Weak inhibition”. Besides, in assay [6], the “Apoptosis (Caspase-3)” value was “Moderate induction”.

In the case of “scrambled EETI FNRDG monomer [FNRDG_AO, reference compound]”, the “binding (in words)” value in assay [1] (scrambled controls) is given as “negligible binding”. Also, the “inhibition of U87MG cell adhesion” value in the assay on U87MG cells [2] (fibronectin-coated plates) is “not able to inhibit cell adhesion”. Further, in the assay with U87MG cells [4] (scrambled controls), the “inhibition of U87MG cell proliferation (in words)” value is given as “did not induce significant inhibition”.
